Measured values reported in patent publication US11950596B2, “Methods of protecting seeds from oxidants and microorganisms” (The United States of America, as represented by the …, priority 2020, dated 2024).
Where two headings read alike, the source gives them in different places. Marks after values point to notes of the source that are not given here.

Test system: A. flavus 3357
Assay: Heat-sensitizing antimicrobial bioassay (MFC) in A. flavus 3357
Format: cell-based, Aspergillus flavus
Details: for MFC: read-out: minimum fungicidal concentration (MFC; >99.999% fungal death)
Experimental: Antimicrobial bioassay: The heat-sensitizing effect of twenty-eight compounds (phenolic derivatives, alkyl gallates, other food additives) (0.025, 0.050, 0.075, 0.100, 0.200, 0.300, 0.400, 0.500, 0.600 or 0.700 mM) and six drugs/fungicides (1, 2, 4, 8, 16, 32, 64 ppm) (Table 2) were examined using A. flavus 3357. Two hundred μL of fungal spores (1.5×10^5 to 2.1×10^5 CFU) dispersed in PBS was transferred into individual microfuge tube (1.5 mL vol.), where (1) “control” tube contained DMSO only, while (2) “treatment” tube contained test chemical/drug at respective concentration. The tubes were then treated with mild heat (57.5° C.) or maintained at room temperature (RT; 22.0° C.) for 90 seconds. After treatments, entire volume (200 μL) from each microfuge tube was spread onto fresh recovery PDA, and plates were incubated at respective temperatures. Fungal growth/survival was monitored after 48 hrs of incubation.
As described in A. flavus 3357 test (see above), microfuge tubes were treated with mild heat (57.5° C.) or maintained at RT (22.0° C.) (90 seconds). After heat treatments, entire volume (200 μL) from each microfuge tube was spread onto fresh recovery LB agar (for bacteria) or PDA (for fungi), and plates were incubated at the optimum temperature for respective microorganisms (i.e., 35° C. for Aspergillus, 37° C. for E. coli, 28° C. for Penicillium/A. tumefaciens, respectively). The growth/survival of test microorganisms were monitored after 48 to 72 hrs of incubation.
Determination of optimum temperature and time duration for screening heat sensitizers in A. flavus 3357: For the determination of the optimum temperature and time points for screening heat sensitizers, fungal (A. flavus 3357) survivability was tested by exposing fungal spores (1.5×10^5 to 2.1×10^5 CFU) to different temperatures (50, 55, 57.5, 60, 65° C.) and time points (0.5, 1.0, 1.5, 2.0, 2.5, 3.0, 3.5, 4.0, 4.5, 5.0 min).

[1] = 57.5° C. mild heat, 90 seconds, PBS
[2] = Aspergillus flavus, 3357, 0.025 h, 22.0° C. (RT), 90 seconds, PBS
[3] = Aspergillus flavus, 3357, 0.025 h, 57.5° C. mild heat, 90 seconds, PBS

Compound	MFC [2]	MFC [3]	other results
N#Cc1c[nH]cc1-c1cccc2c1OC(F)(F)O2 [Fludioxonil]			minimum fungicidal concentration (MFC; >99.999% fungal death) (22.0° C. (RT), 90 seconds, PBS): >64 μg/mL; ppm; minimum fungicidal concentration (MFC; >99.999% fungal death) [1]: >64 μg/mL; ppm
OO [Hydrogen peroxide]	> 700 µM	> 700 µM	
CCOC(=O)c1cc(O)c(O)c(O)c1 [Ethyl gallate]	> 700 µM	> 700 µM	
O=C(O)c1ccc(O)cc1O [2,4-Dihydroxybenzoic acid]	> 700 µM	> 700 µM	
O=Cc1cccc(O)c1O [2,3-Dihydroxybenzaldehyde]	> 700 µM	> 700 µM	
O=Cc1ccccc1O [Salicylaldehyde]	> 700 µM		MFC [1]: >700 µM
CCCOC(=O)c1cc(O)c(O)c(O)c1 [Propyl gallate]	> 700 µM	> 700 µM	
O=Cc1ccccc1 [Benzaldehyde]	> 700 µM		MFC [1]: >700 µM
Cc1ccc(C(C)C)c(O)c1 [Thymol]	> 700 µM	> 700 µM	
Cc1cc(C2CC2)nc(Nc2ccccc2)n1 [Cyprodinil]			minimum fungicidal concentration (MFC; >99.999% fungal death) (22.0° C. (RT), 90 seconds, PBS): >64 μg/mL; ppm; minimum fungicidal concentration (MFC; >99.999% fungal death) [1]: >64 μg/mL; ppm
COc1cc(C=O)ccc1O [Vanillin]	> 700 µM	> 700 µM	
COC(=O)c1cc(O)c(O)c(O)c1 [Methyl gallate]	> 700 µM	> 700 µM	
O=CC=Cc1ccccc1 [Cinnamaldehyde]	> 700 µM		MFC [1]: >700 µM
CCCCOC(=O)c1cc(O)c(O)c(O)c1 [Butyl gallate]	> 700 µM	> 700 µM	
O=C(O)C=Cc1ccccc1 [Cinnamic acid]	> 700 µM	> 700 µM	
O=C(O)c1ccc(O)c(O)c1 [3,4-Dihydroxybenzoic acid]	> 700 µM		MFC [1]: >700 µM

Compound	MFC [2]	MFC [3]	other results
Cc1ccc(C(C)C)cc1O [Carvacrol]	> 700 µM		MFC [1]: >700 µM
O=C(O)c1cc(O)c(O)c(O)c1 [Gallate]	> 700 µM	> 700 µM	
CCCCCCCCCCCCOS(=O)(=O)[O-].[Na+] [Sodium lauryl sulfate]	> 700 µM	> 700 µM	
CCCCCCCCCCOC(=O)c1cc(O)c(O)c(O)c1 [Decyl gallate]	> 700 µM	200 µM	MFC (22.0° C. (RT), 90 seconds, PBS): >700 µM; minimum fungicidal concentration (MFC; >99.999% fungal death) [1]: 200* μM
O=C(O)c1ccccc1 [Benzoic acid]	> 700 µM		MFC [1]: >700 µM
CCCCCCCCCOC(=O)c1cc(O)c(O)c(O)c1 [Nonyl gallate]	> 700 µM	400 µM	MFC (22.0° C. (RT), 90 seconds, PBS): >700 µM; minimum fungicidal concentration (MFC; >99.999% fungal death) [1]: 400* μM
COc1cc(CCC(C)=O)ccc1O [Vanillylacetone]	> 700 µM	> 700 µM	
Cc1ccc(C=O)c(O)c1 [2-Hydroxy-4-methylbenzaldehyde]	> 700 µM	> 700 µM	
CCC(C)n1ncn(-c2ccc(N3CCN(c4ccc(OCC5COC(Cn6cncn6)(c6ccc(Cl)cc6Cl)O5)cc4)CC3)cc2)c1=O (stereo not shown) [Itraconazole]			minimum fungicidal concentration (MFC; >99.999% fungal death) (22.0° C. (RT), 90 seconds, PBS): 64 μg/mL; ppm; minimum fungicidal concentration (MFC; >99.999% fungal death) [1]: >64 μg/mL; ppm
CC[C@H](C)C[C@H](C)CCCCCCCCC(=O)N[C@H]1C[C@@H](O)[C@@H](NCCN)NC(=O)[C@@H]2[C@@H](O)CCN2C(=O)[C@H]([C@H](O)CCN)NC(=O)[C@H]([C@H](O)[C@@H](O)c2ccc(O)cc2)NC(=O)[C@@H]2C[C@@H](O)CN2C(=O)[C@H]([C@@H](C)O)NC1=O [Caspofungin]			minimum fungicidal concentration (MFC; >99.999% fungal death) (22.0° C. (RT), 90 seconds, PBS): >64 μg/mL; ppm; minimum fungicidal concentration (MFC; >99.999% fungal death) [1]: >64 μg/mL; ppm
COC(=O)N(OC)c1ccccc1COc1ccn(-c2ccc(Cl)cc2)n1 [Pyraclostrobin]			minimum fungicidal concentration (MFC; >99.999% fungal death) (22.0° C. (RT), 90 seconds, PBS): >64 μg/mL; ppm; minimum fungicidal concentration (MFC; >99.999% fungal death) [1]: >64 μg/mL; ppm
COc1ccccc1O [Guaiacol]	> 700 µM	> 700 µM	
Cc1cc(C)nc(Nc2ccccc2)n1 [Pyrimethanil]			minimum fungicidal concentration (MFC; >99.999% fungal death) (22.0° C. (RT), 90 seconds, PBS): >64 μg/mL; ppm; minimum fungicidal concentration (MFC; >99.999% fungal death) [1]: >64 μg/mL; ppm
COc1cc(C(=O)O)ccc1O [Vanillic acid]	> 700 µM	> 700 µM	
O=C(O)c1ccccc1O [Salicyllic acid]			MFC (Aspergillus flavus, 3357, 0.025 h): > 700 µM
COc1ccc(C=O)c(O)c1 [2-Hydroxy-4-methoxybenzaldehyde]	> 700 µM	> 700 µM	
